US20240245633A1, “ROR Gamma Agonists as Enhancers of Protective Immunity” (University of Florida Research Foundation, Incorporated, priority 2015, published 2024)
Marks after values point to notes of the source that are not given here.

What was measured:
Gal4-RORγ = target: T1, Gal4-RORγ (Homo sapiens, UniProt P51449); details: 30 μM, 2 μM ursolic acid
T1 sequence (P51449 269-508 limits assumed): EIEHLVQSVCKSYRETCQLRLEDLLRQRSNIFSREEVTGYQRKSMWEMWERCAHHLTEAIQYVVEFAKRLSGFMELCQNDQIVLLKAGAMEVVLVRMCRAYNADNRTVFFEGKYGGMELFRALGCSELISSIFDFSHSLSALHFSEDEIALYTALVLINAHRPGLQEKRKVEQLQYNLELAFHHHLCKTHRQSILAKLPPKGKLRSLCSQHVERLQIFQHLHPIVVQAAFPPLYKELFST

EL4 cells = test: PD-1 surface expression in EL4 cells by flow cytometry; assay type: cell-based, murine; details: compound 48 hr
Method: Using flow cytometery surface PD-1 expression was analyzed to determine if the decrease in gene expression of PD-1 correlates to a decrease of the protein on the cell surface, Cell: surface PD-1 expression was measured in murine and human T cell lines as well as in ex vivo differentiated murine TH17 cells. […] Next we examined the impact of compound treatment on differentiated murine TH17 cells. […] To determine if there was an increase in the active T cell population during TH17 cell differentiation, the population of CD62L^−PD1^− double negative cells was measured using flow cytometry. […] To determine if the effects of SR0987 on PD-1 expression would be observed in a human cell line, Jurkat T cells were treated with the compound.
Gene expression and Cell sorting. Jurkat T cells were pre-incubated with compounds for 48 hr and activated with phorbol 12-myristate 13-acetate (PMA, 50 ng/mL; Sigma) and ionomycin (1 μg/mL; Sigma) for 5 hr. For qPCR, mRNA was isolated with an RNeasy midi kit using DNase I (Qiagen), and cDNA was synthesized with high capacity cDNA Reverse Transcription kit (Applied Biosystems). IL17A, PD-1, and granzyme B gene expression were normalized to the expression of GAPDH. The sequence of primers used in this study are found in Table 2. For cell sorting, activated Jurkat T cells were stained with APC conjugated anti-human PD-1 antibody (eBioscience). […]

[1] = target: T2, RORγt LBD pretreated with ursolic acid (Homo sapiens, UniProt P51449); test: Differential HDX-MS of RORγt pretreated with ursolic acid ± compound; assay type: binding
T2 construct: 5 μL of a 10 μM RORγt LBD solution (Apo or in complex with 10-excess compound)
T2 sequence (P51449 269-508 limits assumed): T1 sequence (P51449 269-508 limits assumed)
Excerpt: While the mechanism of action of RORγt agonists on regulation of the immune checkpoint receptor PD-1 is unclear, a correlation between RORγt and PD-1 expression has been observed in PD-1 knockout mice Z Regardless, to gain insights into the structural mechanism for agonist activity we examined the impact of putative agonist ligands on the conformational dynamics of RORγt. To achieve this, we utilized differential hydrogen/deuterium exchange (HDX) mass spectrometry.
HDX-MS. Solution-phase amide HDX was performed with a fully automated system as described previously with minor modifications^30,31. For differential HDX experiments, 5 μL of a 10 μM RORγt LBD solution (Apo or in complex with 10-excess compound) was diluted to 25 μL with D20-containing HDX buffer, and incubated at 4° C. for; 10 s, 30s, 60s, 900s, and 3,600s, Following on-exchange, unwanted forward or back exchange is minimized and the protein is denatured by dilution to 50 μL with 0.1% TFA in 3M urea (held at 4° C., pH 2.5). Samples are then passed across an immobilized pepsin column (prepared in house) at 50 μL min−1 (0.1% TFA, 15° C.) and the resulting peptides are trapped onto a Ce trap cartridge (Thermo Fisher, Hypersil Gold). Peptides were then gradient eluted (4% CH3CN to 40% CH3CN, 0,3% formic acid over 5 minutes, 4° C.) across a 1 mm×50 mm Cia HPLC column (Hypersil Gold, Thermo Fisher) and electrosprayed directly into a high resolution orbitrap mass spectrometer (Exactive, Thermo Fisher). Percent deuterium exchange values for peptide isotopic envelopes at each time point were calculated and processed using HDX Workbench^32 and overlaid onto RORγt crystal structures using pyMOL (DeLano Scientific). HDX data is presented as an average of three individual replicates across […] time points (10s, 60s, 300s, 900s, and 3600s).

full length RORγt = target: T3, full length RORγt (Homo sapiens, UniProt P51449); test: Full-length RORγt co-transfection with 5×RORE-Luc reporter in HEK293T cells; assay type: cell-based; details: 2 μM ursolic acid
T3 construct: full length RORγt was co-transfected along with a luciferase reporter; expressed in transfected cells; host or cells: HEK293T
T3 sequence (P51449 1-497 isoform P51449-2): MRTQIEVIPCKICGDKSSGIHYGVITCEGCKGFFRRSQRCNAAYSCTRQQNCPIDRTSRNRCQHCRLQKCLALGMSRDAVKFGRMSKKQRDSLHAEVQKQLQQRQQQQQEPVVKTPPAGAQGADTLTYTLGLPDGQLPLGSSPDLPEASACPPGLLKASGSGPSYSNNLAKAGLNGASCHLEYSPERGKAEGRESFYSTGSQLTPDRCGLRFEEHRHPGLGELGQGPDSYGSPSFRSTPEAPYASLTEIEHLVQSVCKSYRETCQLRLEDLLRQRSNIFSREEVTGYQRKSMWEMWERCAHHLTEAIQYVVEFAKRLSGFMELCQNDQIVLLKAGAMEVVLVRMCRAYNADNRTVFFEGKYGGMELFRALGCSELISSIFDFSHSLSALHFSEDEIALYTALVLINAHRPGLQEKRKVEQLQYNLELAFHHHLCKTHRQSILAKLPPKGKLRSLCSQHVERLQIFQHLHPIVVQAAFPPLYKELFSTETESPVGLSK
Excerpt: In order to determine if these compounds could modulate RORγt activity in the context of the full-length receptor, we used a co-transfection system in HEK293T cells in which full length RORγt was co-transfected along with a luciferase reporter under the control of either a basic promoter containing five copies of an ROR response element (5×RORE) or a minimal IL17 promoter.

## CC(C)=CCC[C@@H](C)[C@H]1CC[C@H]2[C@@H]3CC=C4C[C@@H](O)CC[C@]4(C)[C@H]3CC[C@]12C [desmosterol]
Gal4-RORγ
  induction of luciferase expression at highest concentration of the concentration response curve: ~2 fold
EL4 cells
  surface expression of PD-1: no effect
[1]; RORγt exposed to ursolic acid, then compound
  protection to solvent exchange in H12: not observed
[1]; UA pretreated, 268-275, charge 2, H1
  Differential HDX kinetics, peptide TEIEHLVQ: −1(4)*
[1]; UA pretreated, 268-278, charge 2, H1
  Differential HDX kinetics, peptide TEIEHLVQSVC: −2(4)*
[1]; UA pretreated, 268-280, charge 3, H1
  Differential HDX kinetics, peptide TEIEHLVQSVCKS: 2(2)*
[1]; UA pretreated, 268-286, charge 3, H1
  Differential HDX kinetics, peptide TEIEHLVQSVCKSYRETCQ: −1(3)*
[1]; UA pretreated, 268-286, charge 4, H1
  Differential HDX kinetics, peptide TEIEHLVQSVCKSYRETCQ: 0(3)*
[1]; UA pretreated, 288-292, charge 1, H2
  Differential HDX kinetics, peptide RLEDL: 10(2)*
[1]; UA pretreated, 288-293, charge 1, H2
  Differential HDX kinetics, peptide RLEDLL: 10(2)*
[1]; UA pretreated, 304-316, charge 2, H3/H4
  Differential HDX kinetics, peptide EVTGYQRKSMWEM: −6(3)*
[1]; UA pretreated, 317-329, charge 3, H4
  Differential HDX kinetics, peptide WERCAHHLTEAIQ: −1(1)*
[1]; UA pretreated, 317-330, charge 3, H4
  Differential HDX kinetics, peptide WERCAHHTEAIQY: 0(1)*
[1]; UA pretreated, 331-341, charge 2, H4/H5
  Differential HDX kinetics, peptide WEGAKRLSGF: −1(2)*
[1]; UA pretreated, 334-341, charge 2, H4/H5
  Differential HDX kinetics, peptide FAKRLSGF: 0(2)*
[1]; UA pretreated, 345-352, charge 1, H5/H6
  Differential HDX kinetics, peptide CQNDQM: 0(1)*
[1]; UA pretreated, 368-377, charge 2, B1
  Differential HDX kinetics, peptide CRAYNADNRTVF: 0(2)*
[1]; UA pretreated, 369-377, charge 2, B1
  Differential HDX kinetics, peptide YNADNRTVF: −1(3)*
[1]; UA pretreated, 378-387, charge 2, B2/H7
  Differential HDX kinetics, peptide FEGKYGGMEL: −1(3)*
[1]; UA pretreated, 388-395, charge 2, H7/H8
  Differential HDX kinetics, peptide FRALGCSEL: −1(2)*
[1]; UA pretreated, 396-410, charge 2, H8
  Differential HDX kinetics, peptide LISSIFDFSHSLSAL: 0(2)*
[1]; UA pretreated, 397-407, charge 1, H8
  Differential HDX kinetics, peptide ISSIFD: −3(2)*
[1]; UA pretreated, 397-410, charge 2, H8
  Differential HDX kinetics, peptide ISSIFDFSHSLSAL: 0(2)*
[1]; UA pretreated, 400-410, charge 2, H8
  Differential HDX kinetics, peptide IFDFSHSLSAL: 4(3)*
[1]; UA pretreated, 402-410, charge 2, H8
  Differential HDX kinetics, peptide DFSHSKSAL: 3(2)*
[1]; UA pretreated, 403-410, charge 2, H8
  Differential HDX kinetics, peptide FSHSLSAL: 0(3)*
[1]; UA pretreated, 454-478, charge 3, H11
  Differential HDX kinetics, peptide AXLPPXGKLRSLCSQ: −1(4)*
[1]; UA pretreated, 479-495, charge 2, H11
  Differential HDX kinetics, peptide HVERLQIFQHLHPIWQ: −6(3)*
[1]; UA pretreated, 496-505, charge 2, H12
  Differential HDX kinetics, peptide AAFPPLYKEL: −4(2)*
[1]; UA pretreated, 496-506, charge 2, H12
  Differential HDX kinetics, peptide AAFPPLYKELF: −3(2)*
[1]; UA pretreated, charge 2, H9
  Differential HDX kinetics, peptide HFSEDEIAL: −1(2)*
[1]; UA pretreated, charge 2, H11
  Differential HDX kinetics, peptide QIFQHLHPIWQ: −3(3)*
[1]; UA pretreated, charge 3, H1
  Differential HDX kinetics, peptide TEIEHLVQSVCKSYRETCQL: −3(4)*
[1]; UA pretreated, charge 3, H6/B1
  Differential HDX kinetics, peptide VRMCRAYNADNRTVF: −1(1)*
Full length RORγt
  reporter gene expression, 5×RORE promoter: minimal induction of the reporter gene
